Experimental data reported in ChEMBL document CHEMBL1287771, “Novel hybrids of 15-membered 8a- and 9a-azahomoerythromycin A ketolides and quinolones as potent antibacterials” (2010).
Converted amounts (≈) assume the structure as drawn.

Legend:
Type in all cases: functional
[1] = test system: Streptococcus pyogenes; test: Antibacterial activity against inducible macrolide-lincosamide-streptogramin B-resistant Streptococcus pyogenes B0543 by agar microdilution method
[2] = test system: Streptococcus pyogenes; test: Antibacterial activity against erythromycin A-susceptible Streptococcus pyogenes B0542 by agar microdilution method
[3] = test system: Haemophilus influenzae; test: Antibacterial activity against Haemophilus influenzae B0529 by agar microdilution method
[4] = test system: Staphylococcus aureus; test: Antibacterial activity against constitutive macrolide-lincosamide-streptogramin B-resistant Staphylococcus aureus B0330 by agar microdilution method
[5] = test system: Streptococcus pneumoniae; test: Antibacterial activity against erythromycin A-susceptible Streptococcus pneumoniae B0541 by agar microdilution method
[6] = test system: Moraxella catarrhalis; test: Antibacterial activity against Moraxella catarrhalis B0324 by agar microdilution method
[7] = test system: Streptococcus pneumoniae; test: Antibacterial activity against constitutive macrolide-lincosamide-streptogramin B-resistant Streptococcus pneumoniae B0627 by agar microdilution method
[8] = test system: Staphylococcus aureus; test: Antibacterial activity against inducible macrolide-lincosamide-streptogramin B-resistant Staphylococcus aureus B0538 by agar microdilution method
[9] = test system: Staphylococcus aureus; test: Antibacterial activity against efflux-resistant Staphylococcus aureus B0331 by agar microdilution method
[10] = test system: Streptococcus pyogenes; test: Antibacterial activity against efflux-resistant Streptococcus pyogenes B0545 by agar microdilution method
[11] = test system: Streptococcus pyogenes; test: Antibacterial activity against constitutive macrolide-lincosamide-streptogramin B-resistant Streptococcus pyogenes B0544 by agar microdilution method
[12] = test system: Staphylococcus aureus; test: Antibacterial activity against erythromycin A-susceptible Staphylococcus aureus B0329 by agar microdilution method
[13] = test system: Streptococcus pneumoniae; test: Antibacterial activity against efflux-resistant Streptococcus pneumoniae B0326 by agar microdilution method

| SMILES | MIC [1] | MIC [2] | MIC [3] | MIC [4] | MIC [5] | MIC [6] | MIC [7] | MIC [8] | MIC [9] | MIC [10] | MIC [11] | MIC [12] | MIC [13] |
| --- | --- | --- | --- | --- | --- | --- | --- | --- | --- | --- | --- | --- | --- |
| CC[C@H]1OC(=O)[C@H](C)C(=O)[C@H](C)[C@@H](O[C@@H]2O[C@H](C)C[C@H](N(C)C)[C@H]2O)[C@](C)(OC[C@@H](O)CN2CCN(c3ccc4c(c3F)c(=O)c(C(=O)O)cn4C3CC3)CC2)C[C@@H](C)NC(=O)[C@H](C)[C@H](O)[C@@]1(C)O | ≤ 0.125 mg/L | ≤ 0.125 mg/L | ≤ 0.125 mg/L | 2 mg/L (≈ 2.05 µM) | ≤ 0.125 mg/L | ≤ 0.125 mg/L | ≤ 0.125 mg/L | 0.25 mg/L (≈ 0.256 µM) | 0.25 mg/L (≈ 0.256 µM) | 0.5 mg/L (≈ 0.512 µM) | 2 mg/L (≈ 2.05 µM) | ≤ 0.125 mg/L | ≤ 0.125 mg/L |
| CC[C@H]1OC(=O)[C@H](C)C(=O)[C@H](C)[C@@H](O[C@@H]2O[C@H](C)C[C@H](N(C)C)[C@H]2O)[C@](C)(OC[C@H](O)CN2CCN(c3ccc4c(c3F)c(=O)c(C(=O)O)cn4C3CC3)CC2)C[C@@H](C)NC(=O)[C@H](C)[C@H](O)[C@@]1(C)O | 0.5 mg/L (≈ 0.512 µM) | ≤ 0.125 mg/L | 0.25 mg/L (≈ 0.256 µM) | 8 mg/L (≈ 8.2 µM) | ≤ 0.125 mg/L | 0.5 mg/L (≈ 0.512 µM) | 0.5 mg/L (≈ 0.512 µM) | 0.25 mg/L (≈ 0.256 µM) | 0.5 mg/L (≈ 0.512 µM) | 0.5 mg/L (≈ 0.512 µM) | 4 mg/L (≈ 4.1 µM) | ≤ 0.125 mg/L | 0.25 mg/L (≈ 0.256 µM) |
| CC[C@H]1OC(=O)[C@H](C)C(=O)[C@H](C)[C@@H](O[C@@H]2O[C@H](C)C[C@H](N(C)C)[C@H]2O)[C@](C)(OCC(O)CN2CCN(c3ccc4c(c3)c(=O)c(C(=O)O)cn4C3CC3)CC2)C[C@@H](C)NC(=O)[C@H](C)[C@H](O)[C@@]1(C)O (some centres undefined) | 0.25 mg/L (≈ 0.261 µM) | ≤ 0.125 mg/L | 2 mg/L (≈ 2.09 µM) | > 64 mg/L | ≤ 0.125 mg/L | 1 mg/L (≈ 1.04 µM) | 1 mg/L (≈ 1.04 µM) | 0.25 mg/L (≈ 0.261 µM) | 2 mg/L (≈ 2.09 µM) | 2 mg/L (≈ 2.09 µM) | 4 mg/L (≈ 4.17 µM) | 0.25 mg/L (≈ 0.261 µM) | 0.5 mg/L (≈ 0.522 µM) |
| CC[C@H]1OC(=O)[C@H](C)C(=O)[C@H](C)[C@@H](O[C@@H]2O[C@H](C)C[C@H](N(C)C)[C@H]2O)[C@](C)(OCC(O)CNCCNc2cc3c(=O)c(C(=O)O)cn(C4CC4)c3cc2Cl)C[C@@H](C)NC(=O)[C@H](C)[C@H](O)[C@@]1(C)O (some centres undefined) | 4 mg/L (≈ 4.14 µM) | ≤ 0.125 mg/L | 8 mg/L (≈ 8.28 µM) | > 64 mg/L | ≤ 0.125 mg/L | 4 mg/L (≈ 4.14 µM) | 4 mg/L (≈ 4.14 µM) | 2 mg/L (≈ 2.07 µM) | 0.5 mg/L (≈ 0.517 µM) | 4 mg/L (≈ 4.14 µM) | 32 mg/L (≈ 33.1 µM) | 1 mg/L (≈ 1.03 µM) | 1 mg/L (≈ 1.03 µM) |
| CC[C@H]1OC(=O)[C@H](C)C(=O)[C@H](C)[C@@H](O[C@@H]2O[C@H](C)C[C@H](N(C)C)[C@H]2O)[C@](C)(OCC(O)CNCCNc2ccc3c(c2F)c(=O)c(C(=O)O)cn3C2CC2)C[C@@H](C)NC(=O)[C@H](C)[C@H](O)[C@@]1(C)O (some centres undefined) | 1 mg/L (≈ 1.05 µM) | ≤ 0.125 mg/L | 2 mg/L (≈ 2.11 µM) | > 64 mg/L | ≤ 0.125 mg/L | 2 mg/L (≈ 2.11 µM) | 2 mg/L (≈ 2.11 µM) | 1 mg/L (≈ 1.05 µM) | 4 mg/L (≈ 4.21 µM) | 16 mg/L (≈ 16.8 µM) | 8 mg/L (≈ 8.42 µM) | 1 mg/L (≈ 1.05 µM) | 2 mg/L (≈ 2.11 µM) |
| CC[C@H]1OC(=O)[C@H](C)C(=O)[C@H](C)[C@@H](O[C@@H]2O[C@H](C)C[C@H](N(C)C)[C@H]2O)[C@](C)(OCC(O)CN2CCN(c3ccc4c(c3F)c(=O)c(C(=O)OC)cn4C3CC3)CC2)C[C@@H](C)NC(=O)[C@H](C)[C@H](O)[C@@]1(C)O (some centres undefined) | > 64 mg/L | 0.125 mg/L (≈ 0.126 µM) | 4 mg/L (≈ 4.04 µM) | > 64 mg/L | 0.125 mg/L (≈ 0.126 µM) | 0.5 mg/L (≈ 0.505 µM) | > 64 mg/L | > 64 mg/L | 32 mg/L (≈ 32.3 µM) | 16 mg/L (≈ 16.2 µM) | > 64 mg/L | 4 mg/L (≈ 4.04 µM) | 0.25 mg/L (≈ 0.252 µM) |
| C=CCO[C@]1(C)C[C@@H](C)C(=O)N[C@H](C)[C@H](O)[C@@](C)(O)[C@@H](CC)OC(=O)[C@H](C)C(=O)[C@H](C)[C@H]1O[C@@H]1O[C@H](C)C[C@H](N(C)C)[C@H]1O [3-O-DESCLADINOSYL-3-OXO-6-O-ALLYL-9A-AZA-9A-HOMOERYTHROMYCIN A] | > 64 mg/L | > 64 mg/L | > 64 mg/L | > 64 mg/L | > 64 mg/L | 16 mg/L (≈ 25.4 µM) | > 64 mg/L | > 64 mg/L | > 64 mg/L | > 64 mg/L | > 64 mg/L | > 64 mg/L | > 64 mg/L |
| C=CCO[C@@]1(C)[C@@H](CC)OC(=O)[C@H](C)C(=O)[C@H](C)[C@@H](O[C@@H]2O[C@H](C)C[C@H](N(C)C)[C@H]2O)[C@](C)(OCC=C)C[C@@H](C)C(=O)N[C@H](C)[C@@H]1O [3-O-DESCLADINOSYL-6,12-DI-O-ALLYL-3-OXO-9A-AZA-9A-HOMOERYTHROMYCIN A] | 32 mg/L (≈ 47.8 µM) | 2 mg/L (≈ 2.99 µM) | 16 mg/L (≈ 23.9 µM) | > 64 mg/L | 2 mg/L (≈ 2.99 µM) | ≤ 0.125 mg/L | > 64 mg/L | 8 mg/L (≈ 12 µM) | 16 mg/L (≈ 23.9 µM) | 8 mg/L (≈ 12 µM) | > 64 mg/L | 8 mg/L (≈ 12 µM) | 4 mg/L (≈ 5.98 µM) |
